Assay results as given in patent US8524740B2, “Synthesis and anticancer activity of aryl and heteroaryl-quinolin derivatives” (Tairx, Inc., priority 2010, dated 2013).

Tests used:
HT29/5FuR = assay: MTT assay, HT29/5FuR cells; format: cell-based; details: Homo sapiens, HT-29, Table 1, 48 h
Experimental: (§1) MTT (3-(4,5-Dimethylthiazol-2-yl)-2,5-diphenyltetrazolium bromide) assays.^21,22 HL-60, HCT-116, Hep 3B, H460, Detroit 551 and HT29/FuR cells were treated with tested compounds for the indicated periods. After treatment, cells were washed once with PBS and incubated with MTT (Sigma, St. Louis, Mo., USA) for 2 h. The formazan precipitate was dissolved in 150 μL of DMSO, and the absorbance was measured with an ELISA reader at 570 nm.

Hep3B = assay: MTT assay, Hep 3B cells; format: cell-based; details: Homo sapiens
Experimental: as §1
(§2) HL-60, Hep 3B, H460, MES-SA, MES-SAID x5 and Detroit 551 cells were treated with vehicle or test compounds for 48 h. The cell growth rate was determined by MTT (3-(4,5-dimethyl-thiazol-2-yl)-2,5-diphenyltetrazoliun bromide) reduction assay.
as §1, with “assays.” for “assays.^21,22”, “HCT-116, A549,” for “HCT-116,”, “KB, Kb-VIN” for “H460, Detroit 551”, “DU145” for “HT29/FuR”
as §1, with “assays.” for “assays.^21,22”, “HL-60,” for “HL-60, HCT-116,”, “H460, A498, Colo205 and” for “H460,”, “551” for “551 and HT29/FuR”

Detroit 551 = assay: MTT assay, Detroit 551 normal human cells; format: cell-based; details: Detroit 551
Experimental: as §1, §2
as §1, with “assays.” for “assays.^21,22”, “HL-60,” for “HL-60, HCT-116,”, “H460, A498, Colo205 and” for “H460,”, “551” for “551 and HT29/FuR”

[1] = system: HL-60, HCT-116, Hep3B, H-460; assay: Cytotoxicity screen (MTT) against human cancer cell lines, results in words; format: cell-based; details: comparison within sub-series or with CHM-2133
Experimental: as §1, §2

HCT116 = assay: MTT assay, HCT-116 cells; format: cell-based; details: Homo sapiens, Table 1, 48 h
Experimental: as §1
as §1, with “assays.” for “assays.^21,22”, “HCT-116, A549,” for “HCT-116,”, “KB, Kb-VIN” for “H460, Detroit 551”, “DU145” for “HT29/FuR”

H460 = assay: MTT assay, H460 cells; format: cell-based; details: Homo sapiens, NCI-H460
Experimental: as §1, §2
as §1, with “assays.” for “assays.^21,22”, “HL-60,” for “HL-60, HCT-116,”, “H460, A498, Colo205 and” for “H460,”, “551” for “551 and HT29/FuR”

HL-60 = assay: MTT assay, HL-60 cells; format: cell-based; details: Homo sapiens
Experimental: as §1, §2
as §1, with “assays.” for “assays.^21,22”, “HCT-116, A549,” for “HCT-116,”, “KB, Kb-VIN” for “H460, Detroit 551”, “DU145” for “HT29/FuR”
as §1, with “assays.” for “assays.^21,22”, “HL-60,” for “HL-60, HCT-116,”, “H460, A498, Colo205 and” for “H460,”, “551” for “551 and HT29/FuR”

MES-SA/Dx5 = assay: MTT assay, MES-SA/Dx5 cells; format: cell-based, human; details: for IC50: Homo sapiens, MES-SA/Dx5, 48 hrs; for Ratio Of SA/Dx5: IC50 MES-SA/Dx5 over IC50 MES-SA
Experimental: as §2

MES-SA = assay: MTT assay, MES-SA cells; format: cell-based; details: Homo sapiens, 48 hrs
Experimental: as §2

[2] = Table 1, 48 h, MTT, normal human cell
[3] = Homo sapiens, Table 2, B-1 series, 48 hrs

Structure (SMILES)	IC50 (HT29/5FuR)	IC50 (Hep3B; Table 1, 48 h, MTT)	IC50 (HCT116)	IC50 (H460; Table 1, 48 h, MTT)	melting point	IC50 (HL-60; Table 1, 48 h, MTT)	IC50 (Hep3B; Table 2, B-1 series, 48 hrs)	IC50 (H460; Table 2, B-1 series, 48 hrs)	IC50 (HL-60; Table 2, B-1 series, 48 hrs)	IC50 (Detroit 551; [2])	cytotoxicity (in words) [1]	IC50 (Detroit 551; [3])	IC50 (MES-SA/Dx5; Table 2, B-1 series)	Ratio Of SA/Dx5 (MES-SA/Dx5; Table 2, B-1 series)	IC50 (MES-SA; Table 2, B-1 series)	also measured
COc1ccc2c(c1OC)C(=O)CC(c1ccc(F)cc1)=N2 [Compound 18, 2-(4-Fluorophenyl)-5,6-dimethoxyquinolin-4-one]	2020 nM	> 20000 nM	> 20000 nM	> 20000 nM	227 to 229 °C	2000 nM	–	–	–	> 20000 nM	weaker	–	–	–	–	–
COc1ccc2c(c1OC)C(=O)CC(c1cccc(F)c1)=N2 [Compound 17, 2-(3-Fluorophenyl)-5,6-dimethoxyquinolin-4-one]	1960 nM	2600 nM	1200 nM	3500 nM	190 to 192 °C	1300 nM	–	–	–	100000 nM	strongest cytotoxicity	–	–	–	–	–
COc1ccc(OC)c(C2=Nc3ccc(N4CCOCC4)cc3C(=O)C2)c1 [Compound 128, 2-(2,5-Dimethoxyphenyl)-6-morpholinoquinolin-4-one]	–	–	–	–	–	–	3110 nM	3470 nM	1200 nM	–	–	16600 nM	8200 nM	4.04	2030 nM	–
O=C1CC(c2cccc(F)c2)=Nc2ccc3c(c21)OCO3 [Compound 20, 2-(3-Fluorophenyl)-5,6-methylenedioxyquinolin-4-one]	820 nM	2400 nM	2500 nM	3200 nM	286 to 288 °C	700 nM	–	–	–	> 5000 nM	significant cytotoxicity	–	–	–	–	–
COc1cccc(C2=Nc3ccc(N4CCOCC4)cc3C(=O)C2)c1OC [Compound 126, 2-(2,3-Dimethoxyphenyl)-6-morpholinoquinolin-4-one]	–	–	–	–	235 to 236 °C	–	9800 nM	17400 nM	5220 nM	–	–	> 50000 nM	17500 nM	3.49	5000 nM	–
O=C1CC(c2cccc3c2OCO3)=Nc2ccc(N3CCCC3)cc21 [Compound 125, 2-(Benzo[d][1,3]-dioxol-4-yl)-6-pyrrolidinoquinolin-4-one]	–	–	–	–	330 to 332 °C	–	–	–	–	–	–	–	–	–	–	IC50 (Hep3B; Table 3, B-2 series, 48 hrs): 200 nM; IC50 (Detroit 551; Homo sapiens, Table 3, B-2 series, 48 hrs): > 2500 nM; IC50 (MES-SA/Dx5; Table 3, B-2 series): 183 nM; Ratio Of SA/Dx5 (MES-SA/Dx5; Table 3, B-2 series): 1.83; IC50 (MES-SA; Table 3, B-2 series): 100 nM; IC50 (H460; Table 3, B-2 series, 48 hrs): 200 nM; IC50 (HL-60; Table 3, B-2 series, 48 hrs): 80 nM
COc1cc2c(cc1O)N=C(c1cccc(F)c1)CC2=O [Compound 44, 2-(3-Fluorophenyl)-7-hydroxy-6-methoxyquinolin-4-one]	300 nM	5300 nM	1100 nM	4800 nM	326 to 328 °C	900 nM	–	–	–	10000 nM	greater cytotoxicity	–	–	–	–	–

Further lines, with some results ahead:

IC50 (HT29/5FuR)	IC50 (Hep3B; Table 1, 48 h, MTT)	IC50 (HCT116)	IC50 (H460; Table 1, 48 h, MTT)	melting point	IC50 (HL-60; Table 1, 48 h, MTT)	IC50 (Hep3B; Table 2, B-1 series, 48 hrs)	IC50 (H460; Table 2, B-1 series, 48 hrs)	IC50 (HL-60; Table 2, B-1 series, 48 hrs)	Structure (SMILES)	IC50 (Detroit 551; [2])	cytotoxicity (in words) [1]	IC50 (Detroit 551; [3])	IC50 (MES-SA/Dx5; Table 2, B-1 series)	Ratio Of SA/Dx5 (MES-SA/Dx5; Table 2, B-1 series)	IC50 (MES-SA; Table 2, B-1 series)	also measured
–	–	–	–	262 to 264 °C	–	–	7360 nM	2480 nM	COc1ccccc1C1=Nc2ccc(N3CCOCC3)cc2C(=O)C1 [Compound 130, 2-(2-Methoxyphenyl)-6-morpholinoquinolin-4-one]	–	–	> 20000 nM	9710 nM	3.88	2500 nM	–
–	–	–	–	342 to 344 °C	–	–	–	–	CN(C)c1ccc2c(c1)C(=O)CC(c1cccc(O)c1)=N2 [Compound 139, 2-(3-Hydroxyphenyl)-6-dimethylaminoquinolin-4-one]	–	–	–	–	–	–	IC50 (Hep3B; Table 4, B-3 series, 48 hrs): 1000 nM; IC50 (Detroit 551; Homo sapiens, Table 4, B-3 series, 48 hrs): 10000 nM; IC50 (MES-SA/Dx5; Table 4, B-3 series): 852 nM; Ratio Of SA/Dx5 (MES-SA/Dx5; Table 4, B-3 series): 0.92; IC50 (MES-SA; Table 4, B-3 series): 931 nM; IC50 (H460; Table 4, B-3 series, 48 hrs): 6200 nM; IC50 (HL-60; Table 4, B-3 series, 48 hrs): 60 nM
–	–	–	–	–	–	8780 nM	8300 nM	2100 nM	O=C1CC(c2ccccc2O)=Nc2ccc(N3CCOCC3)cc21 [Compound 134, 2-(2-Hydroxyphenyl)-6-morpholinoquinolin-4-one]	–	–	> 100000 nM	10400 nM	4.38	2380 nM	–
